Data reported in patent US12202818B2, “Compounds and methods for CD73 modulation and indications therefor” (Opna Bio SA, priority 2020, dated 2025).

Experiments:
[1] = target: T1, Human CD73 (amino acid residues 27-549) (Homo sapiens, UniProt P21589); test: CD73 enzymatic assay (luciferase-based indirect assay, CellTiter-Glo); type: biochemical; details: 0.4 nM CD73, 150 μM AMP, 1 hour at room temperature
T1 construct: Human CD73 (amino acid residues 27-549); His tag (N); made in house; host or cells: E. coli
T1 sequence (P21589 27-549): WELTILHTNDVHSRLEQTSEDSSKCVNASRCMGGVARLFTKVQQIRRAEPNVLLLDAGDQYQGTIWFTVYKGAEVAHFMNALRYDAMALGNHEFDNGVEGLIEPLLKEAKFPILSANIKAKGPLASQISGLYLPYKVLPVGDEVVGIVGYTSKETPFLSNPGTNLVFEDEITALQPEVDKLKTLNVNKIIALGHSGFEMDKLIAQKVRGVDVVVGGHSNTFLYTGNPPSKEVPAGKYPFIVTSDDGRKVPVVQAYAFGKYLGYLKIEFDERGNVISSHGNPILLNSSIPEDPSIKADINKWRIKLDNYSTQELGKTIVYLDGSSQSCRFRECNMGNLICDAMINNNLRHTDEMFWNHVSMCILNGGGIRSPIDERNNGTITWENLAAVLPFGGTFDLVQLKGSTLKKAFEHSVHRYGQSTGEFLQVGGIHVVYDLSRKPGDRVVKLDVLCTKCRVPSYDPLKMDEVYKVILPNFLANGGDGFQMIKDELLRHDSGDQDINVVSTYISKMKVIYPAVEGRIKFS
Procedure, shortened: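 N-His human CD73 (27-549) expressed in E. coli, 0.4 nM, incubated with 150 μM AMP and compound in 50 mM HEPES pH 7.4, 0.01% Tween-20, 1 h at RT. Remaining AMP read via CellTiter-Glo luminescence with 1 μM ATP after 30 min; IC50 from nonlinear regression of % inhibition.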

human CD73 = target: T2, human CD73 (Homo sapiens, UniProt P21589); test: Inhibitor activity against CD73 in cell based assay (CD73 expressing CHO-K1 cells); details: CHO-K1 cells expressing human CD73, 150 μM AMP, 4 hours of incubation; read-out: CHO-K1 CELL_VARIANT: CD73 IC50
T2 construct: expressed in transfected cells
T2 sequence (P21589 27-549): T1 sequence (P21589 27-549)
Procedure, shortened: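 Stable human CD73 CHO-K1 cells, 1×10^4/well, exposed to an 8-point 1:3 compound series (top 10 μM, 0.2% DMSO) plus 150 μM AMP for 4 h. Remaining AMP in the supernatant was read by CellTiter-Glo 2.0 luminescence with 1 μM ATP after 30 min at room temperature. IC50 came from nonlinear regression of % inhibition against cell and media-only controls.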

Question: Which results are given for `CCCNS(=O)(=O)c1ccc(-c2cc(F)nc(O[C@@H]3CCN(c4cn[nH]c(=O)c4Cl)C3)c2)c(C)c1` [P-0216, (R)-4-(2-((1-(5-chloro-6-oxo-1,6-dihydropyridazin-4-yl)pyrrolidin-3-yl)oxy)-6-fluoropyridin-4-yl)-3-methyl-N-propylbenzenesulfonamide]?
Answer: IC50 [1]: 0.001 to 10 µM; IC50 (human CD73): 0.001 to 10 µM

Question: For `O=c1[nH]ncc(N2CC[C@@H](Oc3cc(C4=CCOCC4)ccn3)C2)c1Cl` [P-0078, (R)-4-chloro-5-(3-((4-(3,6-dihydro-2H-pyran-4-yl)pyridin-2-yl)oxy)pyrrolidin-1-yl)pyridazin-3(2H)-one], which IC50 [1] is on record?
Answer: 0.001 to 10 µM

Question: What about the IC50 (human CD73) of the same molecule?
Answer: 0.001 to 10 µM

Question: How did the IC50 [1] turn out when `Cc1nn(C)c(C)c1-c1cc(F)nc(O[C@H]2CN(c3cnn(CCO)c(=O)c3Cl)C[C@@H]2F)c1` [P-0190, 4-chloro-5-((3S,4S)-3-fluoro-4-((6-fluoro-4-(1,3,5-trimethyl-1H-pyrazol-4-yl)pyridin-2-yl)oxy)pyrrolidin-1-yl)-2-(2-hydroxyethyl)pyridazin-3(2H)-one] was run?
Answer: 0.001 to 10 µM

Question: What about the IC50 (human CD73) of the same molecule?
Answer: 0.001 to 10 µM

Question: `O=c1[nH]ncc(N2CC[C@@H](Oc3cc(N4CC5CCC(C4)N5)ccn3)C2)c1Cl` [P-0013, 5-((3R)-3-((4-(3,8-diazabicyclo[3.2.1]octan-3-yl)pyridin-2-yl)oxy)pyrrolidin-1-yl)-4-chloropyridazin-3(2H)-one] was tested. Which IC50 [1] did it give?
Answer: 0.001 to 10 µM

Question: And the IC50 (human CD73)?
Answer: 0.001 to 10 µM

Question: `Cc1noc(C)c1-c1cc(O[C@H]2CN(c3cnn(CCO)c(=O)c3Cl)C[C@@H]2F)ccn1` [P-0120, 4-chloro-5-((3S,4S)-3-((2-(3,5-dimethylisoxazol-4-yl)pyridin-4-yl)oxy)-4-fluoropyrrolidin-1-yl)-2-(2-hydroxyethyl)pyridazin-3(2H)-one] was tested. Which IC50 [1] did it give?
Answer: 0.001 to 10 µM

Question: And the IC50 (human CD73)?
Answer: 0.001 to 10 µM

Question: With `N#CC1CCC(c2ccnc(O[C@@H]3CCN(c4cn[nH]c(=O)c4Cl)C3)c2)CC1` (stereo partly drawn) [P-0091, (R)-4-(2-((1-(5-chloro-6-oxo-1,6-dihydropyridazin-4-yl)pyrrolidin-3-yl)oxy)pyridin-4-yl)cyclohexane-1-carbonitrile] as the molecule, how does the IC50 [1] read?
Answer: 0.001 to 10 µM

Question: And the IC50 (human CD73)?
Answer: 0.001 to 10 µM

Question: `O=c1[nH]ncc(N2CC[C@@H](Oc3cc(-c4ccc(S(=O)(=O)N5CCCC5)cc4)c(Cl)cn3)C2)c1Cl` [P-0248, (R)-4-chloro-5-(3-((5-chloro-4-(4-(pyrrolidin-1-ylsulfonyl)phenyl)pyridin-2-yl)oxy)pyrrolidin-1-yl)pyridazin-3(2H)-one] was tested. Which IC50 [1] did it give?
Answer: 0.001 to 10 µM

Question: And the IC50 (human CD73)?
Answer: 0.001 to 10 µM

Question: What does the source list for `Cc1nn(C)c(C)c1-c1ccnc(O[C@@H]2CCN(c3cnn(CC(C)O)c(=O)c3Cl)C2)c1` (stereo partly drawn) [P-0126, 4-chloro-2-(2-hydroxypropyl)-5-((R)-3-((4-(1,3,5-trimethyl-1H-pyrazol-4-yl)pyridin-2-yl)oxy)pyrrolidin-1-yl)pyridazin-3(2H)-one]?
Answer: IC50 [1]: 0.001 to 10 µM; IC50 (human CD73): 0.001 to 10 µM

Question: Which results are given for `Nc1ccc(-c2ccnc(O[C@@H]3CCN(c4cn[nH]c(=O)c4Cl)C3)c2)c(F)c1` [P-0220, (R)-5-(3-((4-(4-amino-2-fluorophenyl)pyridin-2-yl)oxy)pyrrolidin-1-yl)-4-chloropyridazin-3(2H)-one]?
Answer: IC50 [1]: 0.001 to 10 µM; IC50 (human CD73): 0.001 to 10 µM

Question: Which IC50 [1] does the source give for `Cc1nn(CC(C)(C)O)c(C)c1-c1ccnc(O[C@@H]2CCN(c3cnn(CCO)c(=O)c3Cl)C2)c1` [P-0017, (R)-4-chloro-5-(3-((4-(1-(2-hydroxy-2-methylpropyl)-3,5-dimethyl-1H-pyrazol-4-yl)pyridin-2-yl)oxy)pyrrolidin-1-yl)-2-(2-hydroxyethyl)pyridazin-3(2H)-one] here?
Answer: 0.001 to 10 µM

Question: What about the IC50 (human CD73) of the same molecule?
Answer: 0.001 to 10 µM

Question: How did the IC50 [1] turn out when `Cc1nn(CC2COC2)c(C)c1-c1ccnc(O[C@@H]2CCN(c3cn[nH]c(=O)c3Cl)C2)c1` [P-0087, (R)-4-chloro-5-(3-((4-(3,5-dimethyl-1-(oxetan-3-ylmethyl)-1H-pyrazol-4-yl)pyridin-2-yl)oxy)pyrrolidin-1-yl)pyridazin-3(2H)-one] was run?
Answer: 0.001 to 10 µM

Question: What about the IC50 (human CD73) of the same molecule?
Answer: 0.001 to 10 µM

Question: Which results are given for `N#Cc1cc(O[C@@H]2CCN(c3cn[nH]c(=O)c3Cl)C2)nc(N2CCCC2)c1` [P-0253, (R)-2-((1-(5-chloro-6-oxo-1,6-dihydropyridazin-4-yl)pyrrolidin-3-yl)oxy)-6-(pyrrolidin-1-yl)isonicotinonitrile]?
Answer: IC50 [1]: 0.001 to 10 µM; IC50 (human CD73): 10 to 100 µM
